Consider 24 molecules from patent publication US5089520A, “Method of inhibiting virus” (priority 1990, dated 1992).

For data set [1], the system named is HIV. Briefly: In vitro HIV replication / cytopathic effect assay, HIV-infected T-cells scored 0 to 4+ (Example 13, Table I). The format is cell-based. More on the design: key to T-cells HIV-infected (score): 0: complete CPE; ±: most cells dead; 1+: about 1/4 of cells alive; 2+: about 1/2 of cells alive; 3+: about 3/4 of cells alive; 4+: all cells appear alive. The note with it: for HIV inhibition score (inactive, scored as zero): above test protocol (Example 13), concentration not given. On the procedure:
(§1) After a suitable period of incubation, the cultures are scored for the presence of so-called syncytial cells (giant cells). Typical examples of such a test for the evaluation of inhibitors of HIV have been disclosed by Fung et al., Bio/Technology 5, 940-946 (1987); Tyms et al., Lancet, Oct. 31, 1987, pp. 1025-1026; Gruters et al., Nature 330, 74-77 (1987); and Walker et al., Proc Natl. Acad. Sci. USA 84, 8120-8124 (1987).
(§2) In the present case, a human leukemic T-cell line was used which is described by Karpas, Leuk. Res. 1, 35-49 (1977). These cells were seeded into microtiter wells at a concentration of 5×10^3 cells per 0.2 ml of culture medium in each well. RPMI-1640 supplemented with 10% fetal calf serum was used as the culture medium. Each of the test compounds was added to either 4 or 6 wells of the microtiter plate. Two or three of the wells were infected with about 10^3 HIV-1 particles per well and two or three other wells were similarly infected with HV-2 particles. During the following 3 weeks, with a twice weekly change of medium containing the corresponding test compounds, the infected cells were monitored for the appearance of syncytial formations (giant cells) and eventual cytopathic effect (CPE). The non-infected cells were monitored for the possible cytotoxic effect of the test compounds. Likewise, the rate of growth was estimated in relation to growth of the control cells. The cultures were scored on a scale from 0 to 4+ by microscopic examination on the following basis:
(§3) 1+=about 1/4 of cells alive
(§4) 2+=about 1/2 of cells alive
(§5) 3+=about 3/4 of cells alive
(§6) 4+=all cells appear alive
On the technique in general: Protection from cytopathic effect is a common read-out in antiviral testing.

In data set [2] the test system is HIV. The note with it: literature, cited from earlier work; for inhibition of HIV / cytopathic effect (in words): in vitro.
The test system of a further data set is α-glucosidase I. The note with it: literature; cited from earlier work.
The test system of data set [3] is human leukemic T-cell line. Briefly: in vitro. Details: key to T-cells Control (score): 0: complete CPE; ±: most cells dead; 1+: about 1/4 of cells alive; 2+: about 1/2 of cells alive; 3+: about 3/4 of cells alive; 4+: all cells appear alive. The note with it: control cells, 3 weeks. In kind it is cell-based. On the procedure:
as §1, §2, §3, §4, §5, §6

For data set [4], the system named is HIV. Briefly: Anti-HIV activity, CPE reduction in HIV infected T-lymphocytes (Example 14, Table II). In kind it is cell-based. The note with it: Human immunodeficiency virus 1, T-lymphocyte; for activity at 100 µg/mL: dosage 0.1 mg/ml; for activity at 130 µg/mL: dosage 0.13 mg/ml. Here is the method: (§7) Further testing of compounds 1 to 12 for inhibition of HIV replication was carried out to confirm the results of Example 13. To discriminate between specific anti-HIV activity and cytotoxicity, the effects of these compounds on HIV infected and non-infected T-lymphocytes were assessed in parallel. Using the T-cell line and cell free suspensions of HIV prepared from infected cultures, as in Example 13, the concentration of infectious particles (TCID, tissue culture infectious dose) was estimated using an end-point titration where the number of infectious HIV particles in each preparation was determined by the highest dilution which contained infectious HIV, as detected by syncytial formation, cytotoxicity and HIV antigen synthesis after 10 days of culture with 10^4 T-45 cells. Stock solutions of all compounds were prepared by dissolving each compound at a concentration of 1 mg/ml in growth medium. These solutions were filtered and sterilised (0.22 μm). Initially, each compound was tested at concentrations of 0.1 mg/ml and 0.5 mg/ml.
(§8) The following Table II sets forth the cytotoxic activity (% cell death) and the anti-HIV activity (% cytopathic effect, CPE, reduction), for these compounds.

Data set [5] is described as follows: Cytotoxic activity in non-infected T-lymphocytes (Example 14, Table II). In kind it is cell-based. The note with it: human, read-out: Cytotoxic Activity (% cell death). Here is the method: as §7, §8
Another data set deals with α-glycosidase. The note with it: literature; cited from earlier work.
A further data set relates to mannosidase I. The note with it: literature; cited from earlier work.
For the next data set, the system named is glycosidase. The note with it: literature; cited from earlier work.
The nature of a further data set: in vitro. More on the design: key to T-cells Control (score): 0: complete CPE; ±: most cells dead; 1+: about 1/4 of cells alive; 2+: about 1/2 of cells alive; 3+: about 3/4 of cells alive; 4+: all cells appear alive. The format is cell-based, human. The note with it: human, leukemic t-cell line; same test protocol as Table I; read-out: toxic at (concentration). On the procedure:
as §1, §2, §3, §4, §5, §6

The next data set relates to HIV virons. The note with it: literature; cited from earlier work.
Where [6] appears, read: compound concentration 0.3 mg/ml.
Setting [7] is: compound concentration 0.1 mg/ml.
[8] abbreviates: compound concentration 0.13 mg/ml.

Read-outs that look alike come from different tables or passages of the source.

`C[C@@H]1NC[C@@H](O)[C@H](O)[C@@H]1O` [1,5-dideoxy-1,5-imino-L-fucitol, 1,5-Dideoxy-1,5-imino-L-fucitol]: in the data set on HIV [1], the “HIV inhibition score (inactive, scored as zero)” value is on record as “zero”.

Consider `CN1C[C@H](O)[C@@H](O)[C@H](O)[C@H]1CO` [N-methyl derivative of deoxynojirimycin], for which the “inhibition of HIV / cytopathic effect (in words)” value with HIV [2] was “having activity against HIV”. Further, the “glucosidase I inhibitory activity (in words)” value with α-glucosidase I is recorded as “gluosidase I inhibitory activity”.

Turning to `O[C@@H]1[C@@H](O)[C@@H](O)CN2CC[C@@H](O)[C@@H]12` [L-6-epicastanospermine], the “inhibition of HIV / cytopathic effect (in words)” value in the data set on HIV [2] is recorded as “neither the epimer L-1,6-diepicastanospermine nor the stereoisomer of castanospermine, L-6-epicastanospermine, were found to be inhibitory”.

For the molecule `OC[C@@H]1[C@@H](O)[C@H](O)[C@@H](O)CN1Cc1ccccc1` [N-benzyl derivative], the “inhibition of HIV / cytopathic effect (in words)” value with HIV [2] was “Neither the azofuranose analog of glucose nor the N-benzyl derivative were found to have an effect on CPE”.

Regarding `OC[C@@H]1NC[C@H](O)[C@H]1O` [Compound 2, 1,4-Dideoxy-1,4-imino-L-arabinitol], the “T-cells HIV-infected (score)” value in the data set with HIV [1] (compound concentration 0.3 mg/ml, 3 weeks, HIV-1 and HIV-2) was 4+. Further, the “T-cells Control (score)” value in [3] (setting [6]) is 4+. In the data set with HIV [4], the activity at 100 µg/mL was 50%. Moreover, the activity at 500 µg/mL with HIV [4] (dosage 0.5 mg/ml) came out at 100%. The cytotoxicity in data set [5] (dosage 0.1 mg/ml) was 0%. In addition, in the data set with HIV [2], the “inhibition of HIV / cytopathic effect (in words)” value is “strong HIV inhibitory activity”.

Consider `OC[C@H]1NC[C@@H](O)[C@@H]1O` [D-enantiomer], for which the “inhibition of HIV / cytopathic effect (in words)” value in the data set with HIV [2] is on record as “very little effect on HIV replication”.

Consider `OC[C@H]1[C@H](O)[C@H](O)CN1Cc1ccccc1` [Compound 7, 1,4-dideoxy-1,4-benzylimino-L-ribitol], for which the “T-cells Control (score)” value in [3] (setting [7]) is reported as 4+. In the data set on HIV [4], this molecule yielded an activity at 100 µg/mL of 25%. The cytotoxicity in data set [5] (dosage 0.1 mg/ml) is 0%.

As for `OC[C@@H]1[C@@H](O)[C@@H](O)CN1Cc1ccccc1` [1,4-dideoxy-1,4-benzylimino-D-ribitol, 1,4-Dideoxy-1,4-benzylimino-D-ribitol], the “HIV inhibition score (inactive, scored as zero)” value in the data set with HIV [1] was “zero”.

Consider `OC[C@H]1NCC[C@@H](O)[C@@H]1O` [fagomine], for which the “inhibition of HIV / cytopathic effect (in words)” value in the data set on HIV [2] is “no HIV inhibition was observed”. The “α-glycosidase inhibitory activity (in words)” value with α-glycosidase is “α-glycosidase inhibitory activity”.

Turning to `OC[C@H]1NC[C@H](O)[C@@H]1O` [Compound 4, 1,4-Dideoxy-1,4-imino-D-ribitol], the “T-cells Control (score)” value in data set [3] (setting [8]) is reported as 4+. The activity at 130 µg/mL with HIV [4] was 50%. The cytotoxicity in data set [5] (dosage 0.13 mg/ml) is 0%.

Consider `CN1C[C@@H](O)[C@@H](O)[C@H](O)[C@H]1CO` [Compound 9, N-Methyl derivative of deoxymannojirimycin], for which the “T-cells Control (score)” value in [3] (setting [6]) is given as 4+. The activity at 300 µg/mL with HIV [4] (dosage 0.3 mg/ml) stood at 25%. Also, the cytotoxicity in [5] (dosage 0.3 mg/ml) was determined as 0%.

Regarding `OC[C@@H](O)[C@@H]1NC[C@@H](O)[C@H]1O` [Compound 8, 1,4-Dideoxy-1,4-imino-D-talitol], the “T-cells Control (score)” value in data set [3] (compound concentration 0.16 mg/ml) was 4+. In the data set on HIV [4] (dosage 0.16 mg/ml), this molecule displayed an activity at 160 µg/mL of 25%. Besides, the cytotoxicity in data set [5] (dosage 0.16 mg/ml) was 0%.

Take `COC(=O)CCCCCN1C[C@@H](O)[C@H](O)[C@H](O)[C@@H]1C` [Compound 12, 1,5-Dideoxy-1,5-imino-[N-ω-methyl caproate]-L-fucitol]: the “T-cells Control (score)” value in data set [3] (compound concentration 0.03 mg/ml) is 4+. In the data set with HIV [4], this molecule came in with an activity at 100 µg/mL of 75%. Besides, the activity at 250 µg/mL in the data set with HIV [4] (dosage 0.25 mg/ml) came to 90%. Moreover, the cytotoxicity in [5] (dosage 0.1 mg/ml) was found to be 0%.

In the case of `OC[C@H]1NC[C@@H](O)[C@@H](O)[C@@H]1O` [deoxymannojirimycin (DMJ), 1,5-dideoxy-1,5-imino-D-mannitol], in the data set with HIV [2], the “effect on HIV / virion infectivity (in words)” value was “absence of effect”. Also, the “mannosidase I inhibition (in words)” value in the data set with mannosidase I is recorded as “mannosidase I inhibitor”.

For `OC[C@H]1NC[C@H](O)[C@@H](O)[C@@H]1O` [deoxynojirimycin (DNJ), deoxynojirimycin], in the data set with HIV [2], the “effect on HIV / virion infectivity (in words)” value was “positive effect”. Besides, the “glycosidase inhibition (in words)” value with glycosidase was “glycosidase inhibitor”.

`C[C@@H]1NC(=O)[C@@H](O)[C@H](O)[C@@H]1O` [Compound 10, 1,5-dideoxy-1,5-imino-L-fuconolactam]: the “T-cells Control (score)” value in data set [3] (setting [7]) is on record as 4+. The activity at 100 µg/mL in the data set with HIV [4] came to 50%. Besides, in data set [5] (dosage 0.1 mg/ml), the cytotoxicity is 25%.

Regarding `CN1[C@H](CO)[C@@H](O)[C@H](O)[C@H]1CO` [Compound 1, N-Methyl derivative of dihydroxymethyldihydroxypyrrolidine], the “T-cells Control (score)” value in data set [3] (setting [7]) is recorded as 4+. Also, in the data set with HIV [4], the activity at 100 µg/mL was 25%. For the same molecule, the cytotoxicity in data set [5] (dosage 0.1 mg/ml) turned out to be 0%.

As for `CN1C[C@H](O)[C@H](O)[C@H]1CO` [Compound 6], in data set [3] (setting [7]), the “T-cells Control (score)” value is recorded as 4+. In the data set on HIV [4], this molecule displayed an activity at 100 µg/mL of 25%. The cytotoxicity in data set [5] (dosage 0.1 mg/ml) was found to be 0%.

For `CN1C[C@H](O)[C@@H](O)[C@@H]1CO` [Compound 5], in data set [3] (setting [7]), the “T-cells Control (score)” value is on record as 4+. Besides, the activity at 100 µg/mL with HIV [4] was found to be 25%. The cytotoxicity in data set [5] (dosage 0.1 mg/ml) was 0%.

Consider `O[C@@H]1[C@@H](O)[C@@H](O)CN2CC[C@H](O)[C@@H]12` [L-1,6-diepicastanospermine], for which the “inhibition of HIV / cytopathic effect (in words)” value in the data set with HIV [2] is recorded as “neither the epimer L-1,6-diepicastanospermine nor the stereoisomer of castanospermine, L-6-epicastanospermine, were found to be inhibitory”.

Turning to `Cc1cn([C@H]2C[C@H](N=[N+]=[N-])[C@@H](CO)O2)c(=O)[nH]c1=O` [AZT, 3'-azido-3'-deoxythymidine, reference compound], the MCC in the data set “in vitro” stood at 0.01 µg/mL. Moreover, the “inhibition of HIV / cytopathic effect (in words)” value with HIV [2] is recorded as “shown to inhibit replication of the virus in vitro”.

For `C[C@H]1[C@@H](O)[C@@H](O)[C@H](O)CN1C` [Compound 11, 1,5-Dideoxy-1,5-imino-[N-methyl]-L-fucitol], in [3] (setting [7]), the “T-cells Control (score)” value is on record as 4+. This molecule gave an activity at 100 µg/mL in the data set on HIV [4] of 25%. In data set [5] (dosage 0.1 mg/ml), the cytotoxicity came out at 0%.

As to `OC[C@@H]1NC[C@@H](O)[C@H]1O` [Compound 3, 1,4-Dideoxy-1,4-imino-L-ribitol], the “T-cells Control (score)” value in [3] (setting [8]) was 4+. In the data set on HIV [4], this molecule registered an activity at 130 µg/mL of 25%. Also, the cytotoxicity in [5] (dosage 0.13 mg/ml) turned out to be 0%.

For `O[C@H]1[C@H](O)[C@@H](O)CN2CC[C@H](O)[C@H]12` [castanospermine], in the data set with HIV [2], the “inhibition of HIV / cytopathic effect (in words)” value is on record as “inhibition of the cytopathic effect (CPE)” and the “effect on HIV / virion infectivity (in words)” value is on record as “only a modest reduction in virion infectivity”. Further, in the data set with α-glucosidase I, the “glucosidase I inhibitory activity (in words)” value is recorded as “α-glucosidase I inhibitor”. Also, the “effect on glycosylation of HIV virons and entry into target cells (in words)” value in the data set with HIV virons is “interfere with normal glycosylation of HIV virons, thereby altering the envelope glycoprotein and preventing entry of HIV into target cells”.
